According to patent publication US6562828B1, “Amidine compounds” (Japan Tobacco Inc., priority 1998, dated 2003):
Counter-ions that a name gives are not always drawn.

Key:
[1] = system: decrease of platelets and formation of FDP by thromboplastin; experiment: Blood coagulation model in rat (thromboplastin); format: in vivo; settings: i.v. 10 min before thromboplastin, mean ± S.D, n = 3; for PLT value: counted 10 min later; for FDP value: measured 30 min later
Protocol: Blood Coagulation Model in Rat
Intravenous administration of thromboplastin (Sigma) to rat promotes coagulation system, which in turn decreases platelets and increases fibrin degradation product (FDP). Thus, the test compound was intravenously administered 10 min before thromboplastin administration and the inhibitory effects of the test compound on the decrease of platelets and the formation of FDP by thromboplastin were studied. The thromboplastin administered had such concentration as to form clots within 20 seconds from the addition of one plasma dose to two thromboplastin doses and was administered in 1 ml/kg dose. Platelets were counted (PLT value) 10 min later on a blood cell counter sysmex F-800 [Dade International Inc. (USA)], and FDP was measured 30 min later using FDP latex reagent for serum [Teikoku Hormone Mfg. Co., Ltd. (Tokyo, Japan)]. In every Example, the PLT value of the thromboplastin untreated group was (106±13)×10^4 and the FDP value of this group was 0±0 μg/ml.

normal plasma = experiment: Determination of prothrombin time (PT), rat plasma; format: biochemical
Protocol: Determination of prothrombin time (PT)
Blood was taken from mouse, rat, crab-eating monkey and healthy human volunteers, and citric acid was added. The blood was centrifuged at 4° C. and 2000 G for 15 min to obtain normal plasma of various animals.
Purified water (5 μl) containing various concentrations of test compound was added to plasma (45 μl) and the resultant mixtures were used as samples. […] (Baxter) was prepared and heated at […] for 5 min, and a sample (50 μl) was admixed with the thrombin reagent (100 μl). The time (PT) until precipitation of fibrin was measured. The drug concentration that doubled the PT hours of the drug untreated group was calculated and taken as CT2.

Human FIIa = molecular target: T1, Human FIIa (Homo sapiens, UniProt P00734); experiment: Determination of anti-factor IIa (FIIa) activity, synthetic substrate S-2238; format: biochemical; settings: S-2238, 37° C., pH 8.4, read-out: Experimental Example 2: anti-FIIa activity, IC50
T1 construct: purchased Sigma

IC50 (Human FIIa): > 10 µM
Structure (SMILES): CC(=N)N1CCC(Oc2ccc(N(Cc3nc4cc(C(=N)N)ccc4n3CC(=O)N[C@@H](C)c3ccccc3)C(=O)c3ccc(C(=O)O)cc3)cc2)CC1 [Example 17, (S)-4-[N-[5-Amidino-1-(1-phenylethylcarbamoylmethyl)benzimidazole-2-ylmethyl]-N-[4-(1-acetimidoylpiperidin-4-yloxy)phenyl]carbamoyl]benzoic Acid Dihydrochloride]
PLT value ([1]; dose 0.01 mg/kg): 41 ± 13 ×10^4 blood platelet/μl
FDP value ([1]; dose 0.01 mg/kg): 6 ± 3 µg/mL
PLT value ([1]; dose 0.03 mg/kg): 92 ± 11 ×10^4 blood platelet/μl
FDP value ([1]; dose 0.03 mg/kg): 1 ± 1 µg/mL
PLT value ([1]; dose 1 mg/kg): 108 ± 6 ×10^4 blood platelet/μl
FDP value ([1]; dose 1 mg/kg): 0 ± 0 µg/mL
CT2 (drug concentration that doubled the PT) (normal plasma): 2 µM
